Patent EP2061765B1, “Serine-threonine protein kinase and PARP modulators” (Senhwa Biosciences, Inc., priority 2006, dated 2008)

How the values were obtained:
Experiment in all cases: Cell proliferation assay (Alamar Blue)
Format in all cases: cell-based
HCT-116 = settings: Homo sapiens, 96 h, HCT-116 cells, four days
A375 = settings: Homo sapiens, A-375, 96 h, A375 cells, four days
Outline: (§1)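 4,000-5,000 cells/well; compound 4 d, 37°C, 5% CO2; Alamar Blue 4 h; fluorescence ex 544/em 590 nm. Medium-only wells as blank, untreated cells as control.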

Hs578T = settings: Homo sapiens, Hs-578T, 96 h, Hs578T cells, four days
Outline: as §1

Jurkat = settings: Homo sapiens, 96 h, Jurkat cells, four days
Outline: as §1

PC3 = settings: Homo sapiens, PC-3, 96 h, PC3 cells, four days
Outline: as §1

H1299 = settings: Homo sapiens, NCI-H1299, 96 h, H1299 cells, four days
Outline: as §1

MiaPaCa = settings: Homo sapiens, MIA PaCa-2, 96 h, MiaPaCa cells, four days
Outline: as §1

A549 = settings: Homo sapiens, 96 h, A549 cells, four days
Outline: as §1

MDAMB231 = settings: Homo sapiens, MDA-MB-231, 96 h, MDAMB231 cells, four days
Outline: as §1

LNCaP = settings: Homo sapiens, 96 h, LNCaP cells, four days
Outline: as §1

MCF-7 = settings: Homo sapiens, MCF7, 96 h, MCF-7 cells, four days
Outline: as §1

K-562 = settings: Homo sapiens, K562, 96 h, K-562 cells, four days
HT29 = settings: Homo sapiens, HT-29, 96 h, HT29 cells, four days
Outline: as §1

BxPC3 = settings: Homo sapiens, BXPC-3, 96 h, BxPC3 cells, four days
Outline: as §1

SK-OV-3 = settings: Homo sapiens, 96 h, SK-OV-3 cells, four days
Outline: as §1

PanC1 = settings: Homo sapiens, PANC-1, 96 h, PanC1 cells, four days
Outline: as §1

COLO205 = settings: Homo sapiens, COLO 205, 96 h, COLO205 cells, four days
Outline: as §1

H460 = settings: Homo sapiens, NCI-H460, 96 h, H460 cells, four days
Outline: as §1

HL-60 = settings: Homo sapiens, 96 h, HL-60 cells, four days
Outline: as §1

IC50 (HCT-116) [µM]	IC50 (A375) [µM]	IC50 (Jurkat) [µM]	IC50 (PC3) [µM]	IC50 (H1299) [µM]	IC50 (MiaPaCa) [µM]	Compound	IC50 (Hs578T) [µM]	further results
4.34	3.21	2.68	4.86	3.08	3.06	O=C(O)c1ccc2c(c1)nc(Nc1ccc(F)c(Cl)c1)c1ccncc12 [drawing 291]	3.31	
4.06	2.63	2.59	7.5	6.62	0.85	O=C(O)c1ccc2c(c1)nc(Nc1cc(F)cc(F)c1)c1ncncc12 [drawing 301]	5.9	
7.19	5.45	0.88	9.14	3.01	2.09	O=C(O)c1ccc2c(c1)nc(Nc1cccc(Cl)c1)c1ncncc12 [drawing 303]	11.2	
> 10		20.3	15.8	15.4		COC(=O)c1ccc2c(c1)nc(Nc1ccc(F)c(Cl)c1)c1ncncc12 [drawing 295]	3.7	
3.94		4.25	9.02	8.46		COC(=O)c1ccc2c(c1)nc(Nc1ccc(F)c(Cl)c1)c1ccncc12	2.62	
15		3.4	11.3	7.16		COC(=O)c1ccc2c(c1)nc(Nc1cccc(OC)c1)c1ccncc12	1.82	
2.99	1.92	0.73	3.14	2.42	1.09	CNc1ncc2c(n1)c(Nc1ccccc1)nc1cc(C(=O)O)ccc12 [drawing 307]	1.84	

More lines, now with the values behind:

Compound	IC50 (HCT-116) [µM]	IC50 (A375) [µM]	IC50 (Jurkat) [µM]	IC50 (PC3) [µM]	IC50 (H1299) [µM]	IC50 (MiaPaCa) [µM]	IC50 (Hs578T) [µM]	further results
O=C(O)c1ccc2c(c1)nc(Nc1cccc(Cl)c1)c1ccncc12 [drawing 299]	4.02	3.95	2.37	1.51	3.08	2.74	0.67	
O=C(O)c1ccc2c(c1)nc(Nc1cccc(F)c1)c1ccncc12 [drawing 375]								IC50 (A549): 16.6 µM
O=C(O)c1ccc2c(c1)nc(Nc1ccc(F)c(Cl)c1)c1ncncc12 [drawing 296]			4.29	18.8	7.55	1.22	9.7	
O=C(O)c1ccc2c(c1)nc(Nc1ccccc1)c1ccncc12 [drawing 286]	13.3	18.4	23.7	15.4	6.84	7.51	14.9	
Clc1cccc(Nc2nc3cc(-c4nnn[nH]4)ccc3c3cnccc23)c1 [drawing 386]								IC50 (MDAMB231): > 50 µM; IC50 (A549): > 50 µM; IC50 (LNCaP): 37.4 µM; IC50 (MCF-7): > 50 µM; IC50 (K-562): 31.2 µM
O=C(O)c1ccc2c(c1)nc(Nc1cccc(F)c1)c1ccncc12 [drawing 447]								IC50 (HT29): 12.8 µM
O=C(O)c1ccc2c(c1)nc(Nc1cc(F)cc(F)c1)c1ccncc12 [drawing 311]	4.33	5.4	2.41	10.1	8.91	1.35	9.09	
N#Cc1cccc(Nc2nc3cc(C(=O)O)ccc3c3cnccc23)c1 [drawing 388]								IC50 (MDAMB231): 28.7 µM; IC50 (A549): > 50 µM; IC50 (LNCaP): 15.5 µM; IC50 (MCF-7): 41 µM; IC50 (K-562): 9.15 µM
C#Cc1cccc(Nc2nc3cc(C(=O)O)ccc3c3cncnc23)c1 [drawing 304]	5.86	4.12	1.8	3.13	1.55	0.67	2.86	
O=C(O)c1ccc2c(c1)nc(Nc1ccc(Cl)cc1)c1ccncc12 [drawing 308]	6.72	4.8	2.53	8.63	1.94	2.7	6.64	
O=C(O)c1ccc2c(c1)nc(Nc1ccc(Cl)cc1)c1ccncc12 [drawing 456]								IC50 (BxPC3): 6.38 µM; IC50 (SK-OV-3): 15.3 µM; IC50 (PanC1): 25.8 µM; IC50 (HT29): 26.9 µM; IC50 (COLO205): 1.57 µM; IC50 (H460): 9.1 µM
Fc1cccc(Nc2nc3cc(-c4nnn[nH]4)ccc3c3cnccc23)c1 [drawing 305]	> 10		9.43	> 50	> 50	> 10		
N#Cc1cccc(Nc2nc3cc(C(=O)O)ccc3c3cnccc23)c1 [drawing 460]								IC50 (BxPC3): 3.62 µM; IC50 (PanC1): > 50 µM; IC50 (HT29): 41.8 µM
Fc1cc(Nc2nc3cc(-c4nnn[nH]4)ccc3c3cnccc23)ccc1Cl [drawing 382]								IC50 (MDAMB231): > 50 µM; IC50 (A549): > 50 µM; IC50 (LNCaP): 48.2 µM; IC50 (MCF-7): 5.94 µM; IC50 (K-562): > 50 µM
O=C(O)c1ccc2c(c1)nc(Nc1cccc(F)c1)c1ncncc12 [drawing 302]	7.1	5.11	1.89	4.71	7.24	3.36	3.43	
COC(=O)c1ccc2c(c1)nc(Nc1ccccc1)c1ccncc12	15		6.83	11.3	13.1		4.78	
O=C(O)c1ccc2c(c1)nc(Nc1ccc(F)c(Cl)c1)c1ccncc12 [drawing 444]								IC50 (BxPC3): 1.5 µM; IC50 (SK-OV-3): 7.33 µM; IC50 (PanC1): 1.84 µM; IC50 (COLO205): 2.2 µM; IC50 (H460): 8.69 µM
O=C(O)c1ccc2c(c1)nc(Nc1cccc(Cl)c1)c1ncncc12 [drawing 451]								IC50 (BxPC3): 1.48 µM; IC50 (SK-OV-3): 8.97 µM; IC50 (PanC1): 18.7 µM; IC50 (HT29): 13 µM; IC50 (COLO205): 8.62 µM; IC50 (H460): 4.1 µM
Clc1cccc(Nc2nc3cc(-c4nnn[nH]4)ccc3c3cnccc23)c1 [drawing 310]	> 10		14.2	46.6	> 50	> 10		
C#Cc1cccc(Nc2nc3cc(C(=O)O)ccc3c3cnccc23)c1 [drawing 309]		7.36	2.78	16.8	3.65	3.85	4.03	
N#Cc1cccc(Nc2nc3cc(C(=O)O)ccc3c3cnccc23)c1 [drawing 312]	> 10		22	26.4		> 10	35.6	
Fc1cccc(Nc2nc3cc(-c4nnn[nH]4)ccc3c3cnccc23)c1 [drawing 381]								IC50 (MDAMB231): > 50 µM; IC50 (A549): > 50 µM; IC50 (LNCaP): < 0.2 µM; IC50 (MCF-7): > 50 µM
COc1cccc(Nc2nc3cc(C(=O)O)ccc3c3cnccc23)c1	> 10		6.52	17.4	10.7	> 10	12.9	
O=C(O)c1ccc2c(c1)nc(Nc1cccc(Cl)c1)c1ncncc12 [drawing 379]								IC50 (MDAMB231): 1.18 µM; IC50 (HL-60): 7.35 µM; IC50 (A549): 28.5 µM; IC50 (LNCaP): 1.56 µM; IC50 (MCF-7): 1.79 µM; IC50 (K-562): 1.13 µM
CN(C)CCNc1nc2cc(C(=O)O)ccc2c2cnccc12	> 10		23.8	17.9	3.8		12.9	
O=C(O)c1ccc2c(c1)nc(Nc1cccc(F)c1)c1ccncc12 [drawing 298]			3.19	9.23	8.32	6.86	5.89	
Fc1cc(Nc2nc3cc(-c4nnn[nH]4)ccc3c3cnccc23)ccc1Cl [drawing 306]	> 10		18.8	> 50	> 50	> 10		
